For data set [1] the following is noted: cited from earlier work.
Data set [2] has as its system neuraminidase. The conditions noted are these: more potent; cited from earlier work.
Data set [3] deals with Caco-2 cell monolayers. Briefly: Unidirectional (A-to-B) permeability of zanamivir across Caco-2 cell monolayers with and without excipients. Conditions: initial screening, glycerol and Capmul MCM L8, results not shown. The class given is in vitro ADME. On the procedure:
Caco-2 cells were obtained from American Type Culture Collection (Rockville, MD). Stock cultures were maintained in flasks with DMEM medium supplemented with 10% FBS, 1% non-essential amino acids, 1 mmol/L sodium pyruvate, 100 IU/mL penicillin, and 100 µg/mL streptomycin in a humidified incubator (37°C, 5% CO2). Cells were harvested by trypsinization and seeded at 60,000 cells/cm^2 onto Costar Transwell® 12-well dual-chamber plates with collagen-coated, microporous polycarbonate membranes (1.13 cm^2 insert area, 0.4 µm pore size; Corning Life Sciences, Acton, MA) for permeability studies. The culture medium was changed three times per week.
Caco-2 cell monolayers that had grown for at least 20 days were subjected to batch quality control testing in which permeation rates were measured for atenolol, digoxin, estrone-3-sulfate, lucifer yellow (LY), and propranolol. In addition, the transepithelial electrical resistance (TEER) across each experimental monolayer was tested prior to an experiment.
Unidirectional (A-to-B) permeability of zanamivir was determined at 15 µg/mL in the absence and presence of varying concentrations of excipients in Caco-2 cell monolayers. The assay buffer was Hanks' balanced salt solution (HBSS) supplemented with 10 mM 4-(2-hydroxyethyl)-1-piperazineethanesulfonic acid (HEPES) and 15 mM D-glucose (HBSSg), pH 7.4. The dosing solutions on the apical side (0.5 mL) contained either zanamivir and excipients at each concentration being tested or zanamivir only (n = 4), while the receiver buffer in the bottom well (1.5 mL) was always excipient-free. The Caco-2 cell monolayers were incubated for 120 min in a humidified incubator (37°C, 5% CO2) after dosing in the apical chambers. Aliquots (200 µL each) of receiver buffer were sampled at 60 min, 90 min, and 120 min after dosing, with replacement by the same volume of blank buffer (at 60 min and 90 min). Donors were sampled at 0 and 120 min.
Experimental samples were identically treated.
In general terms: Caco-2 monolayers are a common model of the intestinal barrier.

Where two headings read alike, the source gives them in different places. Where only a bound is given, the exact number is not on record here.

On to `CCOC(=O)C1=CC(OC(CC)CC)C(NC(C)=O)C(NC(=N)N)C1` (stereo not shown) [GL4116 ethyl ester], for which the Oral bioavailability result in data set [1] (in vivo, po) is listed as “under 5%”.
In the case of `CCC(CC)OC1C=C(C(=O)O)CC(NC(=N)N)C1NC(C)=O` (stereo not shown) [GS4116 carboxylate], in data set [1] (in vivo, po), the Oral bioavailability entry is reported as “under 5%”. Also, the “Inhibitor potency relative to oseltamivir carboxylate” value in data set [2] is listed as 10 fold.
As to `CO[C@@H]([C@@H]1OC(C(=O)O)=C[C@H](NC(=N)N)[C@H]1NC(C)=O)[C@H](O)CO` [laninamivir], the Oral bioavailability entry in data set [1] is reported as “under 2%”.
Turning to `CCC(CC)O[C@@H]1C=C(C(=O)O)C[C@H](N)[C@H]1NC(C)=O` [oseltamivir carboxylate], in data set [1] (in vivo, po), the Oral bioavailability is 2%. Further, the Absolute bioavailability entry in data set [1] (in vivo) is “under 5%”.
Consider `CCOC(=O)C1=C[C@@H](OC(CC)CC)[C@H](NC(C)=O)[C@@H](N)C1` [oseltamivir], for which, in data set [1] (in vivo, po), the Oral bioavailability entry is “at least 35%”. The Absolute bioavailability in data set [1] (in vivo) is given as not below 35%.
For the compound `CCC(CC)[C@H](NC(C)=O)[C@@H]1[C@H](O)[C@@H](C(=O)O)C[C@H]1N=C(N)N` [peramivir], the “Drug transport across Caco-2 cell monolayers with enhancers” value in data set [3] is “substantially increased drug transport”. For the same compound, in data set [1], the Oral bioavailability entry is “under 2%”.

The values are drawn from publication PMC3629230, “Permeability Enhancers Dramatically Increase Zanamivir Absolute Bioavailability in Rats: Implications for an Orally Bioavailable Influenza Treatment” (PLoS ONE, 2013).
